These results are taken from patent US7834023B2 (Portola Pharmaceuticals, Inc., priority 2006, dated 2010).

In the assay the target is T1, P2Y12 receptor (Homo sapiens, UniProt Q9H244).
T1 construct: endogenous in cells; host or cells: human platelets (outdated from blood banks or fresh), apyrase-washed, whole
T1 sequence (Q9H244 whole entry): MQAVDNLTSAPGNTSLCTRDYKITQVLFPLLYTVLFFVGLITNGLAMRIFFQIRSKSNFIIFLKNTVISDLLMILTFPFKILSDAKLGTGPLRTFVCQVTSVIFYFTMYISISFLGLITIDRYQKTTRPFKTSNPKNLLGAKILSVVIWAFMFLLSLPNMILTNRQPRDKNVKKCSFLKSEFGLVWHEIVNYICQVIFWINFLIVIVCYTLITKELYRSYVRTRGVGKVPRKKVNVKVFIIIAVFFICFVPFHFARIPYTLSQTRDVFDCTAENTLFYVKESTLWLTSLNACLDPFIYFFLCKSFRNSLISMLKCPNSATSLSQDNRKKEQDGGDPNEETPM
Nature of the assay: platelet ADP receptor binding assay (ARB): inhibition of [3H]2-MeS-ADP binding to platelets. The settings on record: [3H]2-MeS-ADP binding to apyrase-washed human platelets. On the procedure: 1. The Ability of Candidate Molecules to Inhibit the Binding of [^3H]2-MeS-ADP to the […] Receptor on Platelets was Determined Using a Radioligand Binding Assay.
Utilizing this assay the potency of inhibition of such compounds with respect to [^3H]2-MeS-ADP binding to whole platelets is determined. Under the conditions described in II (3) below, the binding of [^3H]2-MeS-ADP is solely due to the interaction of this ligand with the P2Y12 receptor, in that all the specific binding measured in this assay is competable with a P2Y12 antagonist (i.e., the specific binding is reduced to background levels by competition with an excess of P2Y12 antagonist, with no competition of binding when a P2Y1 antagonist is pre-incubated with the platelet preparation). [^3H]2-MeS-ADP binding experiments are routinely performed with outdated human platelets collected by standard procedures at hospital blood banks. Apyrase-washed outdated platelets are prepared as follows (all steps at room temperature, if not indicated otherwise):
Outdated platelet suspensions are diluted with 1 volume of CGS and platelets pelleted by centrifugation at 1900×g for 45 minutes. Platelet pellets are resuspended at 3-6×10^9 platelets/ml in CGS containing 1 U/ml apyrase (grade V, Sigma, St. Louis, Mo.) and incubated for 15 minutes at 37° C. After centrifugation at 730×g for 20 minutes, pellets are resuspended in Hepes-Tyrode's buffer containing 0.1% BSA (Sigma, St. Louis, Mo.) at a concentration of 6.66×10^8 platelets/ml. Binding experiments are performed after >45 minutes resting of the platelets.
Alternatively, binding experiments are performed with fresh human platelets prepared as described in section I (Inhibition of ADP-Mediated Platelet Aggregation in vitro), except that platelets are resuspended in Hepes-Tyrode's buffer containing 0.1% BSA (Sigma, St. Louis, Mo.) at a concentration of 6.66×10^8 platelets/mil. Very similar results are obtained with fresh and outdated platelets.
A platelet ADP receptor binding assay (ARB) using the tritiated potent agonist ligand [^3H]2-MeS-ADP (Jantzen, H. M. et al. (1999) Thromb. Hemost. 81:111-117) has been adapted to the 96-well microtiter format. In an assay volume of 0.2 ml Hepes-Tyrode's buffer with 0.1% BSA and 0.6% DMSO, 1×10^8 apyrase-washed platelets are preincubated in 96-well flat bottom microtiter plates for 5 minutes with serial dilutions of test compounds before addition of 1 nM [^3H]2-MeS-ADP ([^3H]2-methylthioadenosine-5′-diphosphate, ammonium salt; specific activity 20-50 Ci/mmole, obtained by custom synthesis from Amersham Life Science, Inc., Arlington Heights, Ill., or NEN Life Science Products, Boston, Mass.). Total binding is determined in the absence of test compounds. Samples for nonspecific binding may contain 10 μM unlabelled 2-MeS-ADP (RBI, Natick, Mass.). After incubation for 15 minutes at room temperature, unbound radioligand is separated by rapid filtration and two washes with cold (4-8° C.) Binding Wash Buffer (10 mM Hepes pH 7.4, 138 mM NaCl) using a 96-well cell harvester (Minidisc 96, Skatron Instruments, Sterling, Va.) and 8×12 GF/C glassfiber filtermats (Printed Filtermat A, for 1450 Microbeta, Wallac Inc., Gaithersburg, Md.). The platelet-bound radioactivity on the filtermats is determined in a scintillation counter (Microbeta 1450, Wallac Inc., Gaithersburg, Md.). Specific binding is determined by subtraction of non-specific binding from total binding, and specific binding in the presence of test compounds is expressed as % of specific binding in the absence of test compound dilutions. IC50s were derived by non-linear regression analysis.
The term IC50 denotes the point on the concentration scale where inhibition reaches its midpoint. Take `O=C(NC(C(=O)O)c1ccc(Cl)s1)c1ccc(N2COc3ccccc3C2=O)cc1` (stereo not shown) [Compound 83, 2-(5-chlorothiophen-2-yl)-2-(4-(4-oxo-2H-benzo[e][31]oxazin-3(4H)-yl)benzamido)acetic acid]: the IC50 is over 500 nM.
Turning to `O=C(NC(C(=O)O)c1ccc(Cl)s1)c1ccc(N2COc3cc(NCc4ccc(F)cc4)ccc3C2=O)cc1` (stereo not shown) [Compound 84, 2-(5-chlorothiophen-2-yl)-2-(4-(7-(4-fluorobenzylamino)-4-oxo-2H-benzo[e][1,3]oxazin-3(4H)-yl)benzamido)acetic acid], the IC50 was over 500 nM.
As to `CNc1cc2c(cc1F)C(=O)N(c1ccc(C(=O)NC(c3ccc(Cl)s3)c3nc(C)cs3)cc1)CO2` (stereo not shown) [Compound 85, N-((5-chlorothiophen-2-yl)(4-methylthiazol-2-yl)methyl)-4-(6-fluoro-7-(methylamino)-4-oxo-2H-benzo[e][1,3]oxazin-3(4H)-yl)benzamide], the IC50 was in the range of 50 to 500 nM.
In the case of `CNc1cc2c(cc1F)C(=O)N(c1ccc(C(=O)N(CCC(=O)O)Cc3ccc(Cl)s3)cc1)CO2` [Compound 86, 3-(N-((5-chlorothiophen-2-yl)methyl)-4-(6-fluoro-7-(methylamino)-4-oxo-2H-benzo[e][1,3]oxazin-3(4H)-yl)benzamido)propanoic acid] it was over 500 nM.
Regarding `CNc1cc2c(cc1F)C(=O)N(c1ccc(C(=O)N[C@@H](c3nnn[nH]3)c3ccc(Cl)s3)cc1)CO2` [Compound 87, N-((5-chlorothiophen-2-yl)(1H-tetrazol-5-yl)methyl)-4-(6-fluoro-7-(methylamino)-4-oxo-2H-benzo[e][1,3]oxazin-3(4H)-yl)benzamide], the IC50 is under 50 nM.
In the case of `CNc1cc2c(cc1F)C(=O)N(c1ccc(C(=O)N[C@@H](c3noc(=O)[nH]3)c3ccc(Cl)s3)cc1)CO2` [Compound 88, (S)-N-((5-chlorothiophen-2-yl)(5-oxo-4,5-dihydro-1,2,4-oxadiazol-3-yl)methyl)-4-(6-fluoro-7-(methylamino)-4-oxo-2H-benzo[e][1,3]oxazin-3(4H)-yl)benzamide] it was under 50 nM; in that of `CNc1cc2c(cc1F)C(=O)N(c1ccc(C(=O)N[C@H](c3nnn[nH]3)c3ccc(Cl)s3)cc1)CO2` [Compound 89, (R)-N-((5-chlorothiophen-2-yl)(1H-tetrazol-5-yl)methyl)-4-(6-fluoro-7-(methylamino)-4-oxo-2H-benzo[e][1,3]oxazin-3(4H)-yl)benzamide], under 50 nM; in that of `COc1cc2ccn(-c3ccc(C(=O)NC(C(=O)O)c4ccc(Cl)s4)cc3)c(=O)c2cc1F` (stereo not shown) [Compound 92, 2-(5-chlorothiophen-2-yl)-2-(4-(7-fluoro-6-methoxy-1-oxoisoquinolin-2(1H)-yl)benzamido)acetic acid], over 500 nM.
`CCc1ccc2c(=O)n(-c3ccc(C(=O)NC(C(=O)O)c4ccc(Cl)s4)cc3)ccc2c1` (stereo not shown) [Compound 93, 2-(5-chlorothiophen-2-yl)-2-(4-(6-ethyl-1-oxoisoquinolin-2(1H)-yl)benzamido)acetic acid]: the IC50 was over 500 nM.
The figure for `NC(=O)c1ccc2c(=O)n(-c3ccc(C(=O)NC(C(=O)O)c4ccc(Cl)s4)cc3)ccc2c1` (stereo not shown) [Compound 94, 2-(4-(6-carbamoyl-1-oxoisoquinolin-2(1H)-yl)benzamido)-2-(5-chlorothiophen-2-yl)acetic acid] is over 500 nM; for `N#Cc1ccc2c(=O)n(-c3ccc(C(=O)NC(C(=O)O)c4cccs4)cc3)ccc2c1` (stereo not shown) [Compound 95] it is over 500 nM.
Consider `O=C(NC(C(=O)O)c1ccc(Cl)s1)c1ccc(-n2ccc3ccccc3c2=O)cc1` (stereo not shown) [Compound 96, 2-(5-chlorothiophen-2-yl)-2-(4-(1-oxoisoquinolin-2(1H)-yl)benzamido)acetic acid], for which the IC50 was over 500 nM.
`O=C(NC(C(=O)O)c1cccs1)c1ccc(-n2ccc3ccccc3c2=O)cc1` (stereo not shown) [Compound 97, 2-(4-(1-oxoisoquinolin-2(1H)-yl)benzamido)-2-(thiophen-2-yl)acetic acid] came in with an IC50 of over 500 nM.
In the case of `N#Cc1ccc2c(=O)n(-c3ccc(C(=O)NC(C(=O)O)c4ccc(Cl)s4)cc3)ccc2c1` (stereo not shown) [Compound 98, 2-(5-chlorothiophen-2-yl)-2-(4-(6-cyano-1-oxoisoquinolin-2(1H)-yl)benzamido) acetic acid] it was over 500 nM; in that of `NC(=O)c1cn(-c2ccc(C(=O)NC(C(=O)O)c3ccc(Cl)s3)cc2)c(=O)c2ccccc12` (stereo not shown) [Compound 99], over 500 nM; in that of `N#Cc1cn(-c2ccc(C(=O)NC(C(=O)O)c3ccc(Cl)s3)cc2)c(=O)c2ccccc12` (stereo not shown) [Compound 100, 2-(5-chlorothiophen-2-yl)-2-(4-(4-cyano-1-oxoisoquinolin-2(1H)-yl)benzamido)acetic acid], over 500 nM.
`COc1ccc2c(=O)n(-c3ccc(C(=O)NC(C(=O)O)c4ccc(Cl)s4)cc3)ccc2c1` (stereo not shown) [Compound 101, 2-(5-chlorothiophen-2-yl)-2-(4-(6-methoxy-1-oxoisoquinolin-2(1H)-yl)benzamido)acetic acid] displayed an IC50 of over 500 nM.
In the case of `O=C(NC(C(=O)O)c1ccc(Cl)s1)c1ccc(-n2cc(Br)c3ccccc3c2=O)cc1` (stereo not shown) [Compound 102, 2-(4-(4-bromo-1-oxoisoquinolin-2(1H)-yl)benzamido)-2-(5-chlorothiophen-2-yl)acetic acid] it was over 500 nM.
In the case of `CNc1cc2[nH]c(=O)n(-c3ccc(CN(CC(=O)O)C(=O)c4ccc(Cl)s4)cc3)c(=O)c2cc1F` [Compound 103, 2-(5-chloro-N-(4-(6-fluoro-7-(methylamino)-2,4-dioxo-1,2-dihydroquinazolin-3(4H)-yl)benzyl)thiophene-2-carboxamido)acetic acid] it was over 500 nM; in that of `CNc1cc2[nH]c(=O)n(-c3ccc(CNC(CC(=O)O)c4ccc(Cl)s4)cc3)c(=O)c2cc1F` (stereo not shown) [Compound 104, 3-(5-chlorothiophen-2-yl)-3-(4-(6-fluoro-7-(methylamino)-2,4-dioxo-1,2-dihydroquinazolin-3(4H)-yl)benzylamino)propanoic acid], 50 to 500 nM.
Turning to `O=C(NCc1ccc(Cl)s1)Nc1ccc(-n2c(=O)[nH]c3cc(NCc4ccc(F)cc4)ccc3c2=O)cc1` [Compound 107, 1-((5-chlorothiophen-2-yl)methyl)-3-(4-(7-(4-fluorobenzylamino)-2,4-dioxo-1,2-dihydroquinazolin-3(4H)-yl)phenyl)urea], the IC50 is under 50 nM.
The figure for `O=C(Nc1ccc(-n2c(=O)[nH]c3cc(NCc4ccc(F)cc4)ccc3c2=O)cc1)NC(C(=O)O)c1cccs1` (stereo not shown) [Compound 108, 2-(3-(4-(7-(4-fluorobenzylamino)-2,4-dioxo-1,2-dihydroquinazolin-3(4H)-yl)phenyl)ureido)-2-(thiophen-2-yl)acetic acid] is 50 to 500 nM.
In the case of `O=C(Nc1ccc(-n2c(=O)[nH]c3cc(NCc4ccc(F)cc4)ccc3c2=O)cc1)NC(Cc1cccs1)C(=O)O` (stereo not shown) [Compound 109, 2-(3-(4-(7-(4-fluorobenzylamino)-2,4-dioxo-1,2-dihydroquinazolin-3(4H)-yl)phenyl)ureido)-3-(thiophen-2-yl)propanoic acid] it was 50 to 500 nM; in that of `CNc1cc2[nH]c(=O)n(-c3ccc(NC(=O)NC(C(=O)O)c4ccc(Cl)s4)cc3)c(=O)c2cc1F` (stereo not shown) [Compound 110, 2-(5-chlorothiophen-2-yl)-2-(3-(4-(6-fluoro-7-(methylamino)-2,4-dioxo-1,2-dihydroquinazolin-3(4H)-yl)phenyl)ureido)acetic acid], over 500 nM; in that of `CNc1cc2[nH]c(=O)n(-c3cccc(C(=O)NC(C(=O)O)c4ccc(Cl)s4)c3)c(=O)c2cc1F` (stereo not shown) [Compound 111, 2-(5-chlorothiophen-2-yl)-2-(3-(6-fluoro-7-(methylamino)-2,4-dioxo-1,2-dihydroquinazolin-3(4H)-yl)benzamido)acetic acid], over 500 nM.
